Consider 8 molecules from patent US8785457B2 (Cellzome Limited, priority 2009, dated 2014).

What is called IC50 is the concentration at which inhibition is half-maximal.

Assay [1] has as its target T1, mTOR (Homo sapiens, UniProt P42345).
T1 construct: endogenous in cells; host or cells: Jurkat, clone E6-1 (ATCC TIB-152) cell lysate
Briefly: mTOR kinobeads assay (competitive binding in Jurkat cell lysate, immunodetection). Conditions: kinobeads assay, Table 6; read-out: Inhibition values (IC50) mTOR. The procedure: The compounds of the present invention as described were tested in the mTOR kinobeads assay as described below. […] After the incubation time the beads with captured proteins were separated from the lysate. Bound proteins were then eluted and the presence of mTOR, PI3K delta (PI3 Kd) and DNA-dependent protein kinase (DNA-PK) was detected and quantified using a specific antibody in a dot blot procedure and the Odyssey infrared detection system.
(§1) The kinobeads assay was performed as a competitive binding assay in which test compounds were added directly into a cell lysate. Test compounds (at various concentrations) and the affinity matrix (beads with immobilized phenylmorpholin-chromen ligand) were added to cell lysate aliquots and allowed to bind to the proteins contained in the lysate sample. After the incubation time the beads with captured proteins were separated from the lysate. Bound proteins were then eluted and the presence of kinases was detected and quantified using a multiplexed immunodetection format. Dose response curves for individual kinases were generated and IC50 values calculated.
(§2) 5×DP buffer: 250 mM Tris-HCl pH 7.4, 25% Glycerol, 7.5 mM MgCl2, 750 mM NaCl, 5 mM Na3VO4, filter the 5×-lysis buffer through 0.22 μm filter and store in aliquots at −80° C. The 5×DP buffer is diluted to 1×DP buffer containing 1 mM DTT and 25 mM NaF.
Stock solutions of test compounds were prepared in DMSO. In a 96 well plate 30 μl solution of diluted test compounds at 5 mM in DMSO were prepared. Starting with this solution a 1:3 dilution series (9 steps) was prepared. For control experiments (no test compound) a buffer containing 2% DMSO was used.
Jurkat cells were homogenized in a Potter S homogenizer in lysis buffer: 50 mM Tris-HCl, 0.8% NP40, 5% glycerol, 150 mM NaCl, 1.5 mM MgCl2, 25 mM NaF, 1 mM sodium vanadate, 1 mM DTT, pH 7.5. […] The material was dounced 10 times using a mechanized POTTER S, transferred to 50 ml falcon tubes, incubated for 30 minutes on ice and spun down for 10 min at 20,000 g at 4° C. (10,000 rpm in Sorvall SLA600, precooled). […] (33.500 rpm in Ti50.2, precooled). The supernatant was transferred again to a fresh 50 ml falcon tube, the protein concentration was determined by a Bradford assay (BioRad) and samples containing 50 mg of protein per aliquot were prepared. The samples were immediately used for experiments or frozen in liquid nitrogen and stored frozen at −80° C.
Jurkat cell lysate (approximately 50 mg protein per plate) was thawed in a water bath at room temperature and then kept on ice. […] The diluted cell lysate was stored on ice.
Plates were sealed and incubated for two hours in a cold room on a Thermoxer with shaking (750 rpm). Afterwards the plate was washed twice with 230 μl washing buffer (1×DP 0.4% NP40). […] The eluate was frozen quickly at −80° C. and stored at −20° C.
The kinases in the eluates were detected and quantified by spotting on Nitrocellulose membranes and using a first antibody directed against the kinase of interest and a fluorescently labeled secondary antibody (anti-mouse or anti-rabbit IRDye™ antibodies from Rockland).
Afterwards the membrane was washed three times for 10 minutes with PBS buffer containing 0.1% Tween 20 at room temperature. […] Afterwards the membrane was washed three times for 10 minutes each with 1×PBS buffer containing 0.1% Tween 20 at room temperature. Then the membrane was rinsed once with PBS buffer to remove residual Tween 20. The membrane was kept in PBS buffer at 4° C. and then scanned with the Odyssey instrument. Fluorescence signals were recorded and analysed according to the instructions of the manufacturer.

Assay [2] deals with T2, DNA-dependent protein kinase (DNA-PK) (Homo sapiens, UniProt P78527).
T2 construct: endogenous in cells; host or cells: Jurkat, clone E6-1 (ATCC TIB-152) cell lysate
Briefly: kinobeads assay, DNA-PK. The conditions noted are these: kinobeads assay, Table 6; read-out: Inhibition values (IC50) DNAPK. The class given is binding. The procedure:
(§3) The compounds of the present invention as described were tested in the mTOR kinobeads assay as described below. Briefly, test compounds (at various concentrations) and the affinity matrix with the immobilized phenylmorpholin-chromen ligand (8-(4-aminomethyl-phenyl)-2-morpholin-4-yl-chromen-4-one) were added to cell lysate aliquots and allowed to bind to the proteins in the lysate sample. After the incubation time the beads with captured proteins were separated from the lysate. Bound proteins were then eluted and the presence of mTOR, PI3K delta (PI3 Kd) and DNA-dependent protein kinase (DNA-PK) was detected and quantified using a specific antibody in a dot blot procedure and the Odyssey infrared detection system. Kinobeads assays for PI3K (WO-A 2008/015013) and for kinase selectivity profiling (WO 2006/134056) have been previously described.
as §1
(§4) The affinity matrix (beads with immobilized phenylmorpholin-chromen ligand) was washed two times with 15 ml of 1×DP buffer containing 0.2% NP40 (IGEPAL® CA-630, Sigma, #13021) and then resupended in 5.5 ml of 1×DP buffer containing 0.2% NP40 (10% beads slurry).
as §2
(§5) Stock solutions of test compounds were prepared in DMSO. In a 96 well plate 30 μl solution of diluted test compounds at 5 mM in DMSO were prepared. Starting with this solution a 1:3 dilution series (9 steps) was prepared. For control experiments (no test compound) a buffer containing 2% DMSO was used. Compound CZC00018052 served as a positive control (PI-103; Calbiochem catalogue number 528100).
(§6) Jurkat cells (ATCC catalogue number TIB-152 Jurkat, clone E6-1) were grown in 1 liter Spinner flasks (Integra Biosciences, #182101) in suspension in RPMI 1640 medium (Invitrogen, #21875-034) supplemented with 10% Fetal Bovine Serum (Invitrogen) at a density between 0.15×10^6 and 1.2×10^6 cells/ml. Cells were harvested by centrifugation, washed once with 1×PBS buffer (Invitrogen, #14190-094) and cell pellets were frozen in liquid nitrogen and subsequently stored at −80° C.
(§7) Jurkat cells were homogenized in a Potter S homogenizer in lysis buffer: 50 mM Tris-HCl, 0.8% NP40, 5% glycerol, 150 mM NaCl, 1.5 mM MgCl2, 25 mM NaF, 1 mM sodium vanadate, 1 mM DTT, pH 7.5. One complete EDTA-free tablet (protease inhibitor cocktail, Roche Diagnostics, 1873580) per 25 ml buffer was added. The material was dounced 10 times using a mechanized POTTER S, transferred to 50 ml falcon tubes, incubated for 30 minutes on ice and spun down for 10 min at 20,000 g at 4° C. (10,000 rpm in Sorvall SLA600, precooled). The supernatant was transferred to an ultracentrifuge (UZ)-polycarbonate tube (Beckmann, 355654) and spun for 1 hour at 100.000 g at 4° C. (33.500 rpm in Ti50.2, precooled). The supernatant was transferred again to a fresh 50 ml falcon tube, the protein concentration was determined by a Bradford assay (BioRad) and samples containing 50 mg of protein per aliquot were prepared. The samples were immediately used for experiments or frozen in liquid nitrogen and stored frozen at −80° C. […]

In assay [3] the target is T3, PI3 Kbeta (PI3 Kb) (Homo sapiens, UniProt P42338).
T3 construct: endogenous in cells; host or cells: cell lysate
T3 sequence (P42338 whole entry): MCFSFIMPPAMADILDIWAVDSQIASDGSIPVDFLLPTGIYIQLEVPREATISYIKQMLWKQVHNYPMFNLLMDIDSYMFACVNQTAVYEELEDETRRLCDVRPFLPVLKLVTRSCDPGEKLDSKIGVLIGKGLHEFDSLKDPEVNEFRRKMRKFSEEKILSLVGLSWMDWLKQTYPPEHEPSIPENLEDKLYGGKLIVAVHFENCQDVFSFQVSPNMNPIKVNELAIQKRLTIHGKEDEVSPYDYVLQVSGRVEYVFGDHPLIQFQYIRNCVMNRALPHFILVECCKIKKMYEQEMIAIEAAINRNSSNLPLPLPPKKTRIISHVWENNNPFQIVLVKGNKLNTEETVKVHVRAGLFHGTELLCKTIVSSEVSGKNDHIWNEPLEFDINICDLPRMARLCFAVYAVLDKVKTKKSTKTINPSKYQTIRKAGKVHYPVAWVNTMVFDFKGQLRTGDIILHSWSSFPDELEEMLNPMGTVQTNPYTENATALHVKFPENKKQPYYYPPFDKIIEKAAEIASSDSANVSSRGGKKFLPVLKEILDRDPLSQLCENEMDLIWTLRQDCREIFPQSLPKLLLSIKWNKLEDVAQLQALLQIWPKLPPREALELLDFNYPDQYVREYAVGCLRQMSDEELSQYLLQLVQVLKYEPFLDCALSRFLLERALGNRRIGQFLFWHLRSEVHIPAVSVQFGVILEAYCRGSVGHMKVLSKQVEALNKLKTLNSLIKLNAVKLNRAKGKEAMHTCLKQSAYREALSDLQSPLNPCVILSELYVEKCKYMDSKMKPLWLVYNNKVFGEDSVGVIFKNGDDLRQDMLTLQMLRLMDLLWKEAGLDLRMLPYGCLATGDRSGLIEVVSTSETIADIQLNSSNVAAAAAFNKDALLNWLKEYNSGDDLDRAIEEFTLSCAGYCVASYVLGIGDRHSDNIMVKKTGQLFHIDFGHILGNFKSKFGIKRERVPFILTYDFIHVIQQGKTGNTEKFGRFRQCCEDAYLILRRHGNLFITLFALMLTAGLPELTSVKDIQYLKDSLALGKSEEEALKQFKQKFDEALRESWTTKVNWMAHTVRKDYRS
T3 sequence (P27986 whole entry partner): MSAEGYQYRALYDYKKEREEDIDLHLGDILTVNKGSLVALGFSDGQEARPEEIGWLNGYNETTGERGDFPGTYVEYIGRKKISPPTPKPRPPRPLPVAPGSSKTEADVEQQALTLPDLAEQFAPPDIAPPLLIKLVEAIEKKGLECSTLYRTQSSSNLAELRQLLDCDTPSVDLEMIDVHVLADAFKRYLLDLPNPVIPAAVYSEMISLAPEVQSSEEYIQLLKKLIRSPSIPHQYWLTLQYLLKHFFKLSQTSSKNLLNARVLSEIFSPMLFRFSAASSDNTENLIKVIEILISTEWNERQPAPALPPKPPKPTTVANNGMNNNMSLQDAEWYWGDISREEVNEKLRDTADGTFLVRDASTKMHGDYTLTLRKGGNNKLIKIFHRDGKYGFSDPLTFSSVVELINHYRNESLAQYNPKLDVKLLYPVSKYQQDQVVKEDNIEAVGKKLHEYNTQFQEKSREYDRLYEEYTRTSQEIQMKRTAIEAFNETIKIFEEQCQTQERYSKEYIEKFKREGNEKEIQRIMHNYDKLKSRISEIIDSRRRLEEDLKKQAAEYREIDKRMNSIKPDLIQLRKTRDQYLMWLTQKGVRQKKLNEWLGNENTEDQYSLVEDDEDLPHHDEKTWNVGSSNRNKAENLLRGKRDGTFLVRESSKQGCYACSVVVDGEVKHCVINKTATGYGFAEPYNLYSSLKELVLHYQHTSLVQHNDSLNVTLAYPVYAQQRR
Briefly: kinobeads assay, PI3Kbeta. In kind it is binding. The conditions noted are these: kinobeads assay, Table 6; read-out: Inhibition values (IC50) PI3Kb. The procedure:
as §1
(§8) The effect of the compounds on the kinases PI3Kalpha (PI3Ka), PI3 Kbeta (PI3 Kb) and PI3 Kgamma (PI3 Kg) were tested in the kinobeads assay as described (WO-A 2009/098021).

Assay [4] concerns the target T4, PI3K delta (PI3 Kd) (Homo sapiens, UniProt O00329).
T4 construct: endogenous in cells; host or cells: Jurkat, clone E6-1 (ATCC TIB-152) cell lysate
As to the kind of experiment: kinobeads assay, PI3K delta. In kind it is binding. The conditions noted are these: kinobeads assay, Table 6; read-out: Inhibition values (IC50) PI3Kd. The procedure: as §3, §1, §4, §2, §5, §6, §7

The target of assay [5] is T5, PI3 Kgamma (PI3 Kg) (Homo sapiens, UniProt P48736).
T5 construct: endogenous in cells; host or cells: cell lysate
T5 sequence (P48736 whole entry): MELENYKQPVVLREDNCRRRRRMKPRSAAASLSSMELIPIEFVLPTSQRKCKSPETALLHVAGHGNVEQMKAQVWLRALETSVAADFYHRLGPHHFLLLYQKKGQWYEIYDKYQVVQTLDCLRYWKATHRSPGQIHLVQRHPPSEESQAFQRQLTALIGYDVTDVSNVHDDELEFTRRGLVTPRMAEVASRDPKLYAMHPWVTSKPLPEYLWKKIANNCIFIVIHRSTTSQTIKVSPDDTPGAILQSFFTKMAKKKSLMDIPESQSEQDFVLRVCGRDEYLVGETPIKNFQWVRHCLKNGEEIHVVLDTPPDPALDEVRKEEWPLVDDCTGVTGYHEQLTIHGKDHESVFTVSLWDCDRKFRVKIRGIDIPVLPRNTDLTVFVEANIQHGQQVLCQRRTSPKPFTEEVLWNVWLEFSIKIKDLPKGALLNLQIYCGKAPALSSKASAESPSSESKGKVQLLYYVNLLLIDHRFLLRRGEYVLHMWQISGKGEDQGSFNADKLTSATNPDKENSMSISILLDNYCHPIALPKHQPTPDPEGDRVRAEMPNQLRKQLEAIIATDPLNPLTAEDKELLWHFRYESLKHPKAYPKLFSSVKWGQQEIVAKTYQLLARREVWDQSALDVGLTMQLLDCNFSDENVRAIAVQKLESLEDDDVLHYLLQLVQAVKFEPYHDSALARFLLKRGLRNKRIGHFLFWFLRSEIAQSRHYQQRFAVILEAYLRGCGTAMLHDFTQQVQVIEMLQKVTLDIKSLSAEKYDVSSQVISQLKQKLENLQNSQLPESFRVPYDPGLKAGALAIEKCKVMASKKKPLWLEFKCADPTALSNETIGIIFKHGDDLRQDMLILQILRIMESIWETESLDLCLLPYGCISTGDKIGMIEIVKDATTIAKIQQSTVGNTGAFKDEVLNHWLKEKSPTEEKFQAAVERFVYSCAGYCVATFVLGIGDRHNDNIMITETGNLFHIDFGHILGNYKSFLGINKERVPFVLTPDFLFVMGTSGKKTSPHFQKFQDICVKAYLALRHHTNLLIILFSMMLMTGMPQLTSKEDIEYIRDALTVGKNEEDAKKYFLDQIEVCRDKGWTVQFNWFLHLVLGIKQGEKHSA
Briefly: kinobeads assay, PI3Kgamma. The class given is binding. Conditions: kinobeads assay, Table 6; read-out: Inhibition values (IC50) PI3Kg. The procedure:
as §1, §8

For assay [6], the target named is T6, PI3Kalpha (PI3Ka) (Homo sapiens, UniProt P42336).
T6 construct: endogenous in cells; host or cells: cell lysate
T6 sequence (P42336 whole entry): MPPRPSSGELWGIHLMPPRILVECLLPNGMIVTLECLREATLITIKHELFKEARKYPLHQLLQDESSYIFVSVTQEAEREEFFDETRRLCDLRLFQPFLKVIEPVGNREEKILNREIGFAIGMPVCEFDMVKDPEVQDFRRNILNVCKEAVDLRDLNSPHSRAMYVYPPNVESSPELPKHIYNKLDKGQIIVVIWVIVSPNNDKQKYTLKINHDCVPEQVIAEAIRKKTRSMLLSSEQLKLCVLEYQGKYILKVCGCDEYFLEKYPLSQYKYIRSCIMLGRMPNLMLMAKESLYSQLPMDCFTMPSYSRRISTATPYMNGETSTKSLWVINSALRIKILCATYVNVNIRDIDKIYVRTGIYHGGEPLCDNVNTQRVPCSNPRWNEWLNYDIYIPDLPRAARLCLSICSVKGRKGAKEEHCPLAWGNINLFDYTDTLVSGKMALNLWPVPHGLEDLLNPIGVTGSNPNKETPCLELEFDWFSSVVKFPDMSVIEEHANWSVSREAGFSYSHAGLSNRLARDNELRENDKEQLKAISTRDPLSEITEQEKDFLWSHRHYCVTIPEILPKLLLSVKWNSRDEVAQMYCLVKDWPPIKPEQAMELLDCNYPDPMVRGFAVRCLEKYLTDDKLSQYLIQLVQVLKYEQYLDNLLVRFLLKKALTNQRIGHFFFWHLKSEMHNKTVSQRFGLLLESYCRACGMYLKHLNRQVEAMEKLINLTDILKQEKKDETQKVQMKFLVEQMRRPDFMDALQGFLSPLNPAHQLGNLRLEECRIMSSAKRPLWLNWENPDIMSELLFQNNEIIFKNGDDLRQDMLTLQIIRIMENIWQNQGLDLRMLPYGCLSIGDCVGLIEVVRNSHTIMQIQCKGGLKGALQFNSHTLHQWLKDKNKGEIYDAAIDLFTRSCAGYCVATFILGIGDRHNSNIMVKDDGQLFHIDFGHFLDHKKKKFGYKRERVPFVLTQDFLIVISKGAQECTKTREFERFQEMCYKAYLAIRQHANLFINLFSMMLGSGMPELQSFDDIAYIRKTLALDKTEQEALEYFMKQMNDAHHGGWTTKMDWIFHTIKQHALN
T6 sequence (P27986 whole entry partner): as the sequence (P27986 whole entry partner) above
Briefly: kinobeads assay, PI3Kalpha. The class given is binding. Conditions: kinobeads assay, Table 6. On the procedure: as §1, §8

T4 sequence (O00329 whole entry): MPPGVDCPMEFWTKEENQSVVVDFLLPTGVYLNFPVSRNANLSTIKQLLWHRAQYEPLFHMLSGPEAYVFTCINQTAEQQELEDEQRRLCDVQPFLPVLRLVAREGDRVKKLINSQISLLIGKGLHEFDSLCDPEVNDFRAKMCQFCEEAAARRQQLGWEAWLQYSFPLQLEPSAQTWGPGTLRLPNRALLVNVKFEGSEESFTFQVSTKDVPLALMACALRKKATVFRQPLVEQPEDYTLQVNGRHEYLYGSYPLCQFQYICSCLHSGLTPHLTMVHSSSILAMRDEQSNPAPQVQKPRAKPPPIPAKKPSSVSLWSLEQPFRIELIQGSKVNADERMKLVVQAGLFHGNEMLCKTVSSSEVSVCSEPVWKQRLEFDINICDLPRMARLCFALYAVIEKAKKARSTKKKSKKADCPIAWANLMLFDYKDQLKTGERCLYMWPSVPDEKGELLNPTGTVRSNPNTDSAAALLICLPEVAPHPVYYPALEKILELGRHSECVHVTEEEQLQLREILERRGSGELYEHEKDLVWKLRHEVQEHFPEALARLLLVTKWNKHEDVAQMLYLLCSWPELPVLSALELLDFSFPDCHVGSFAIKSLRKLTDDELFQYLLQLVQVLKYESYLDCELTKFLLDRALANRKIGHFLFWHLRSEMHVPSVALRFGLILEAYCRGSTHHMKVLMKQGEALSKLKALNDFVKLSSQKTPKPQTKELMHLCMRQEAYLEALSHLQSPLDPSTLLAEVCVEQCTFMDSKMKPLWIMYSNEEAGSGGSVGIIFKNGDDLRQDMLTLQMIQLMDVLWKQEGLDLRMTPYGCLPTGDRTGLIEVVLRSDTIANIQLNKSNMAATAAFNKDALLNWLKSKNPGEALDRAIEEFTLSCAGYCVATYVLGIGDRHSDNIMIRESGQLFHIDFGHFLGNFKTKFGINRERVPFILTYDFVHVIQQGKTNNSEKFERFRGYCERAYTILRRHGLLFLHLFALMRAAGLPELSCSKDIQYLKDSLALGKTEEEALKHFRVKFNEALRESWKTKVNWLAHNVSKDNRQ
T4 sequence (P27986 whole entry partner): as the sequence (P27986 whole entry partner) above

As for `CCOC(=O)N1Cc2nc(-c3ccc(NC(=O)Nc4cccc(O)c4)cc3)nc(N3CCOC[C@@H]3C)c2C1` [Example 111, (S)-ethyl 2-(4-(3-(3-hydroxyphenyl)ureido)phenyl)-4-(3-methylmorpholino)-5H-pyrrolo[3,4-d]pyrimidine-6(7H)-carboxylate], the IC50 in assay [1] is 0.1 to 1 µM; in assay [2], > 10 µM; in assay [3], > 10 µM; in assay [4], > 10 µM; in assay [5], > 10 µM. Further, in assay [6], the “Inhibition values (IC50) PI3Ka” value is recorded as “D (D >10 μM)”.
In the case of `CCOC(=O)N1Cc2nc(-c3ccc(NC(=O)NCCN)cc3)nc(N3CCOC[C@@H]3C)c2C1` [Example 112, (S)-ethyl 2-(4-(3-(2-aminoethyl)ureido)phenyl)-4-(3-methylmorpholino)-5H-pyrrolo[3,4-d]pyrimidine-6(7H)-carboxylate], the IC50 is < 0.1 µM in assay [1]; > 10 µM in assay [2]; 1 to 10 µM in assay [3]; 0.1 to 1 µM in assay [4]; 1 to 10 µM in assay [5]. In assay [6], the “Inhibition values (IC50) PI3Ka” value is “B (B >0.1 μM < 1 μM)”.
As to `CCOC(=O)N1Cc2nc(-c3ccc(NC(=O)NCC(N)=O)cc3)nc(N3CCOC[C@@H]3C)c2C1` [Example 114, (S)-ethyl 2-(4-(3-(2-amino-2-oxoethyl)ureido)phenyl)-4-(3-methylmorpholino)-5H-pyrrolo[3,4-d]pyrimidine-6(7H)-carboxylate], the IC50 in assay [1] was 0.1 to 1 µM; in assay [2], > 10 µM; in assay [3] it was 1 to 10 µM; in assay [4], 0.1 to 1 µM; in assay [5] it was 1 to 10 µM. The “Inhibition values (IC50) PI3Ka” value in assay [6] is listed as “B (B >0.1 μM < 1 μM)”.
Consider `CCOC(=O)N1Cc2nc(-c3ccc(NC(=O)NCC(=O)O)cc3)nc(N3CCOC[C@@H]3C)c2C1` [Example 115, (S)-2-(3-(4-(6-(ethoxycarbonyl)-4-(3-methylmorpholino)-6,7-dihydro-5H-pyrrolo[3,4-d]pyrimidin-2-yl)phenyl)ureido)acetic acid], for which the 50% inhibitory concentration (IC50) in assay [1] was 0.1 to 1 µM; in assay [2], > 10 µM; in assay [3] it was > 10 µM; in assay [4] it was > 10 µM; in assay [5], > 10 µM. Moreover, the “Inhibition values (IC50) PI3Ka” value in assay [6] was “D (D >10 μM)”.
As to `CCNC(=O)Nc1cnc(-c2nc3c(c(N4CCOC[C@@H]4C)n2)CN(C(=O)OCC)C3)cn1` [Example 116, (S)-ethyl-2-(5-(3-ethylureido)pyrazin-2-yl)-4-(3-methylmorpholino)-5H-pyrrolo[3,4-d]pyrimidine-6(7H)-carboxylate], the IC50 is 0.1 to 1 µM in assay [1]; > 10 µM in assay [2]; > 10 µM in assay [3]; > 10 µM in assay [4]; > 10 µM in assay [5]; 1 to 10 µM in assay [6] (read-out: Inhibition values (IC50) PI3Ka).
With `CCNC(=O)Nc1ccc(-c2nc3c(c(N4CCOC[C@@H]4C)n2)CN(C2CCN(C(C)=O)CC2)C3)cc1F` [Example 117, (S)-1-(4-(6-(1-acetylpiperidin-4-yl)-4-(3-methylmorpholino)-6,7-dihydro-5H-pyrrolo[3,4-d]pyrimidin-2-yl)-2-fluorophenyl)-3-ethylurea], the IC50 in assay [1] is 0.1 to 1 µM; in assay [2], > 10 µM; in assay [3], > 10 µM; in assay [4], > 10 µM; in assay [5], > 10 µM. The “Inhibition values (IC50) PI3Ka” value in assay [6] is on record as “D (D >10 μM)”.
In the case of `CCOC(=O)N1Cc2nc(-c3ccc(NC(=O)Nc4cccnc4)cc3)nc(N3CCOC[C@@H]3C)c2C1` [Example 118, (S)-ethyl 4-(3-methylmorpholino)-2-(4-(3-(pyridin-3-yl)ureido)phenyl)-5H-pyrrolo[3,4-d]pyrimidine-6(7H)-carboxylate], the IC50 in assay [1] was 0.1 to 1 µM; in assay [2] it was > 10 µM; in assay [3], > 10 µM; in assay [4], > 10 µM; in assay [5], > 10 µM. Moreover, in assay [6], the “Inhibition values (IC50) PI3Ka” value was “D (D >10 μM)”.
As for `CCOC(=O)N1Cc2nc(-c3ccc(NC(=O)Nc4ccc(CO)cc4)cc3)nc(N3CCOC[C@@H]3C)c2C1` [Example 119, (S)-ethyl 2-(4-(3-(4-(hydroxymethyl)phenyl)ureido)phenyl)-4-(3-methylmorpholino)-5H-pyrrolo[3,4-d]pyrimidine-6(7H)-carboxylate], the IC50 in assay [1] was 0.1 to 1 µM; in assay [2] it was > 10 µM; in assay [3], > 10 µM; in assay [4], > 10 µM; in assay [5] it was > 10 µM. Besides, in assay [6], the “Inhibition values (IC50) PI3Ka” value is “D (D >10 μM)”.
